In US20170275275A1, “BENZENESULFONAMIDES USEFUL AS SODIUM CHANNEL INHIBITORS” (PFIZER INC., priority 2014, published 2017):
Values after ≈ are worked out from the molar mass of the structure shown. Structures can show the parent of a compound that is named as a salt.

Tests used:
[1] = biological target: T1, Nav1.7 (or SCN9A) channel (Homo sapiens, UniProt Q15858); assay: Nav1.7 (hSCN9A) channel block, PatchXpress (PX) whole-cell electrophysiology in stably transfected HEK cells; assay type: cell-based; conditions: for IC50: estimated IC50 from single point electrophysiology data, PatchXpress platform, HEK cells expressing hSCN9A, clamped at V1/2 of inactivation, read-out: Nav1.7 EIC50
T1 construct: expressed in transfected cells
Description: The ability of the compounds of formula (I) to block the Nav1.7 (or SCN9A) channel was measured using the assay described below.
Human Embryonic Kidney (HEK) cells were transfected with an hSCN9A construct using lipofectamine reagent (Invitrogen), using standard techniques. Cells stably expressing the hSCN9A constructs were identified by their resistance to G-418 (400 μg/ml). Clones were screened for expression using the whole-cell voltage-clamp technique.
HEK cells stably transfected with hSCN9A were maintained in DMEM medium supplemented with 10% heat-inactivated fetal bovine serum and 400 μg/ml G-418 in an incubator at 37° C. with a humidified atmosphere of 10% CO2. For HTS, cells were harvested from flasks by trypsinization and replated in an appropriate multi-well plate (typically 96 or 384 wells/plate) such that confluence would be achieved within 24 hours of plating. Cells were typically used for electrophysiological experiments within 24 to 72 hours after plating.
For conventional whole-cell voltage clamp experiments cells were removed from the culture flask by brief trypsinization and re-plated at low density onto glass cover slips. Cover slips containing HEK cells expressing hSCN9A were placed in a bath on the stage of an inverted microscope and perfused (approximately 1 ml/minutes) with extracellular solution of the following composition: 138 mM NaCl, 2 mM CaCl2, 5.4 mM KCl, 1 mM MgCl2, 10 mM glucose, and 10 mM HEPES, pH 7.4, with NaOH. […] The osmolarity of the extracellular and intracellular solutions was 300 mOsm/kg and 295 mOsm/kg, respectively. All recordings were made at room temperature (22-24° C.) using AXOPATCH 200B amplifiers and PCLAMP software (Axon Instruments, Burlingame, Calif.). hSCN9A currents in HEK cells were measured using the whole-cell configuration of the patch-clamp technique (Hamill et al., 1981). Uncompensated series resistance was typically 2 to 5 mega ohms and >85% series resistance compensation was routinely achieved. […] Current records were acquired at 20 to 50 KHz and filtered at 5 to 10 KHz.
HEK cells stably transfected with hSCN9A were viewed under Hoffman contrast optics and placed in front of an array of flow pipes emitting either control or compound-containing extracellular solutions.
The voltage-dependence of inactivation was determined by applying a series of depolarizing prepulses (8 sec long in 10 mV increments) from a negative holding potential. The voltage was then immediately stepped to 0 mV to assess the magnitude of the sodium current. Currents elicited at 0 mV were plotted as a function of prepulse potential to allow estimation of the voltage at which 50% of the channels were inactivated (midpoint of inactivation or V1/2). Compounds were tested for their ability to inhibit hSCN9A sodium channels by activating the channel with a 20 msec voltage step […] to 0 mV following an 8 second conditioning prepulse to the empirically determined V1/2. Compound effect (% inhibition) was determined by difference in current amplitude before and after application of test compounds. For ease of comparison, “estimated IC-50” (EIC50) values were calculated from single point electrophysiology data by the following equation, (tested concentration, nM)×(100-% inhibition/% inhibition). Inhibition values <20% and >80% were excluded from the calculation.
Electrophysiological assays were conducted with PatchXpress 7000 hardware and associated software (Molecular Devices Corp). All assay buffers and solutions were identical to those used in conventional whole-cell voltage clamp experiments described above. hSCN9A cells were grown as above to 50%-80% confluency and harvested by trypsinization. Trypsinized cells were washed and resuspended in extracellular buffer at a concentration of 1×10^6 cells/ml. The onboard liquid handling facility of the PatchXpress was used for dispensing cells and application of test compounds.

[2] = Aqueous solubility, shake-flask method; assay type: physicochemical; conditions: aqueous buffer, thermodynamic from solid
Description: Aqueous solubility data were generated via a “shake-flask” method where an excess of compound was added to a buffer (typically phosphate buffered saline at pH 7.4) and shaken for a period of 18 hours at room temperature. After this time any excess solid was removed by double centrifugation to obtain a saturated aqueous solution. The amount of compound solubilised was quantified by HPLC-UV or LC-MS against a standard calibration curve.
The solubility data generated are set out below. Where a greater than figure is quoted, all available compound was solubilised and saturation was not achieved in the conditions employed.

[3] = pH 7.5, shaken 18 hours at room temperature
[4] = pH 7.4, shaken 18 hours at room temperature

T1 sequence (Q15858 whole entry): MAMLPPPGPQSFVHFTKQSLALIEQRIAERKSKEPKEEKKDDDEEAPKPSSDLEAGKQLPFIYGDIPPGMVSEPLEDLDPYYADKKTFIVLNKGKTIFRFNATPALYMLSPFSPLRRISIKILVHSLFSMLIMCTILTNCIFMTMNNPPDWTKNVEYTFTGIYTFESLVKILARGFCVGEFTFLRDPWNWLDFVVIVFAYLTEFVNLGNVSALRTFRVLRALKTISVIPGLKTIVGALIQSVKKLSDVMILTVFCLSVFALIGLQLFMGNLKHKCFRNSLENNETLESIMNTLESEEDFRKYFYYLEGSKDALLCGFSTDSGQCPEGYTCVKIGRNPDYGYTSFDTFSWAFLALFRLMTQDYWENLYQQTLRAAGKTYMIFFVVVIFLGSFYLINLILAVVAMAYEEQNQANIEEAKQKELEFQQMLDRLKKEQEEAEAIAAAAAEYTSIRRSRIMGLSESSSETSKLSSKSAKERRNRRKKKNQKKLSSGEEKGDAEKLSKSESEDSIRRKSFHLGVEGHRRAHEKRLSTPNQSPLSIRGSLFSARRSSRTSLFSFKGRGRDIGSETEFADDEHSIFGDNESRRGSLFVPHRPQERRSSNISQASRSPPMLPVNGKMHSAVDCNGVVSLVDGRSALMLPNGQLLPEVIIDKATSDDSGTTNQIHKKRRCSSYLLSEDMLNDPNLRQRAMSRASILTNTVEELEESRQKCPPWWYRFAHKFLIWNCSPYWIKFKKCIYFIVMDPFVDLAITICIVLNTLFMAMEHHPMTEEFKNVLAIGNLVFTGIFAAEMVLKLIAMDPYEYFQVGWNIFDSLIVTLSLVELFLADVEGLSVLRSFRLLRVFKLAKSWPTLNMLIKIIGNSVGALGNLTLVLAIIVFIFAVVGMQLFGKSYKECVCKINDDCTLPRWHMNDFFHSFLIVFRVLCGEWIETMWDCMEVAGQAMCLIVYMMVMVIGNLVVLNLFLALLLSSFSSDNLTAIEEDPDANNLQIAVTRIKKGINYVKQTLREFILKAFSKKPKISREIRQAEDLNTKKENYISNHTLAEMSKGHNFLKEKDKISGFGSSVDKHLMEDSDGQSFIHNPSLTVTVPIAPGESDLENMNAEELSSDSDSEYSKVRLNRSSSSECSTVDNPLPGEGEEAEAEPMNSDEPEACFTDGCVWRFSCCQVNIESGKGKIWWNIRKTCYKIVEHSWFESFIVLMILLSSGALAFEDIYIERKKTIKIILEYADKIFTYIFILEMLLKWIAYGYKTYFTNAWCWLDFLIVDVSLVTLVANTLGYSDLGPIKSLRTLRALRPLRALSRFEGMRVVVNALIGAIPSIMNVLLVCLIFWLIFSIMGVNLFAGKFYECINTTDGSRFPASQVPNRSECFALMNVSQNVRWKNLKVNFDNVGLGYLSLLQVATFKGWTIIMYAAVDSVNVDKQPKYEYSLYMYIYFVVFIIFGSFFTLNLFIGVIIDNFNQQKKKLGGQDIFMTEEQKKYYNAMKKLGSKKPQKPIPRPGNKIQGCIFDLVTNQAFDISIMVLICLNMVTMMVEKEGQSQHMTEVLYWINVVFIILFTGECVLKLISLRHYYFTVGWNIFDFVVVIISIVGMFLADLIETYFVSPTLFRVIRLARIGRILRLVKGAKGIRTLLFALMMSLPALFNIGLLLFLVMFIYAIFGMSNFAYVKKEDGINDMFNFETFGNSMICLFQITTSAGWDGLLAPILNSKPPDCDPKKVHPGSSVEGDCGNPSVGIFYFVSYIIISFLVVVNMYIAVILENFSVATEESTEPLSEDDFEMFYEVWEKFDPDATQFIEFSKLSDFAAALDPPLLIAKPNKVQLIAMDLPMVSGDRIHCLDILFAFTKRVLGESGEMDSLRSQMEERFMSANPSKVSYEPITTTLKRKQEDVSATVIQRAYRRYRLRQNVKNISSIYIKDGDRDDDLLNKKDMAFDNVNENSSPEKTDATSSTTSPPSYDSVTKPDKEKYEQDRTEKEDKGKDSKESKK

| Compound | IC50 [1] | solubility at 18 h [2, 3] | also measured |
| --- | --- | --- | --- |
| O=S(=O)(Nc1nncs1)c1cc(Cl)c(Oc2ccc(-c3cccc(C(F)(F)F)c3)cc2-c2ccnc(CNCCC3CCNCC3)c2)cc1F [Example 6, 5-Chloro-2-fluoro-4-{[3-(2-{[(2-piperidin-4-ylethyl)amino]methyl}pyridin-4-yl)-3′-(trifluoromethyl)biphenyl-4-yl]oxy}-N-1,3,4-thiadiazol-2-ylbenzenesulfonamide bis-formate salt] | 2.1 nM | < 500 µg/mL | solubility at 18 h ([2]; pH 5.0, shaken 18 hours at room temperature): > 2300 µg/mL |
| NCc1cc(-c2cc(-c3cccc(C(F)(F)F)c3)ccc2Oc2cc(F)c(S(=O)(=O)Nc3nncs3)cc2Cl)ccn1 [Example 7, 4-({3-[2-(Aminomethyl)pyridin-4-yl]-3′-(trifluoromethyl)biphenyl-4-yl}oxy)-5-chloro-2-fluoro-N-1,3,4-thiadiazol-2-ylbenzenesulfonamide bis-formate salt] | 1.5 nM |  | solubility at 18 h ([2]; pH 7.2, shaken 18 hours at room temperature): 0.5 µg/mL |
| COCCOCCOCCOCCOCCOCCOCCOCCOCCOCCOCCOCCNCc1cc(-c2cc(-c3cccc(C(F)(F)F)c3)ccc2Oc2ccc(S(=O)(=O)Nc3ncns3)cc2C#N)ccn1 [Example 12, 3-cyano-4-({3-[2-(2,5,8,11,14,17,20,23,26,29,32,35-dodecaoxa-38-azanonatriacontan-39-yl)pyridin-4-yl]-3′-(trifluoromethyl)biphenyl-4-yl}oxy)-N-(1,2,4-thiadiazol-5-yl)benzenesulfonamide] | 2.3 nM | 612 µg/mL (≈ 532 µM) |  |
| COCCOCCOCCOCCNCc1cc(-c2cc(-c3cccc(C(F)(F)F)c3)ccc2Oc2ccc(S(=O)(=O)Nc3ncns3)cc2C#N)ccn1 [Example 15, 4-((3-(2-(5,8,11,14-tetraoxa-2-azapentadecyl)pyridin-4-yl)-3′-(trifluoromethyl)-[1,1′-biphenyl]-4-yl)oxy)-3-cyano-N-(1,2,4-thiadiazol-5-yl)benzenesulfonamide] | 1 nM | 110 µg/mL (≈ 138 µM) |  |
| COCCOCCOCCOCCOCCOCCOCCOCCOCCOCCOCCOCCC(=O)N1CCC(CCNCc2cc(-c3cc(-c4cccc(C(F)(F)F)c4)ccc3Oc3ccc(S(=O)(=O)Nc4ncns4)cc3C#N)ccn2)CC1 [Example 17, 4-((3-(2-(((2-(1-(2,5,8,11,14,17,20,23,26,29,32,35-dodecaoxaoctatriacontan-38-oyl)piperidin-4-yl)ethyl)amino)methyl)pyridin-4-yl)-3′-(trifluoromethyl)-[1,1′-biphenyl]-4-yl)oxy)-3-cyano-N-(1,2,4-thiadiazol-5-yl)benzenesulfonamide] | < 10 nM |  | inhibition at 0.01 µM ([1]; HEK293, Nav1.7, PatchXpress, 10 nM, read-out: % inhibition at 10 nM dose): 87.4%; solubility at 18 h [2, 4]: > 2300 µg/mL |
| N#Cc1cc(S(=O)(=O)Nc2ncns2)ccc1Oc1ccc(-c2cccc(C(F)(F)F)c2)cc1-c1ccnc(CNCCC2CCNCC2)c1 [Example 18b, 3-Cyano-4-{[3-(2-{[(2-piperidin-4-ylethyl)amino]methyl}pyridin-4-yl)-3′-(trifluoromethyl)biphenyl-4-yl]oxy}-N-1,2,4-thiadiazol-5-ylbenzenesulfonamide trihydrochloride salt] |  |  | solubility at 18 h [2, 4]: > 10000 µg/mL |
| COCCOCCOCCOCCOCCOCCOCCOCCOCCOCCOCCOCCC(=O)NCc1cc(-c2cc(-c3cccc(C(F)(F)F)c3)ccc2Oc2ccc(S(=O)(=O)Nc3ncns3)cc2C#N)ccn1 [Example 19, N-((4-(4-(4-(N-(1,2,4-thiadiazol-5-yl)sulfamoyl)-2-cyanophenoxy)-3′-(trifluoromethyl)-[1,1′-biphenyl]-3-yl)pyridin-2-yl)methyl)-2,5,8,11,14,17,20,23,26,29,32,35-dodecaoxaoctatriacontan-38-amide] | 17.5 nM | > 3 µg/mL |  |
| COCCOCCOCCOCCO[C@@H]1CCN(Cc2cc(-c3cc(-c4cccc(C(F)(F)F)c4)ccc3Oc3ccc(S(=O)(=O)Nc4ncns4)cc3C#N)ccn2)C1 [Example 21, (R)-4-((3-(2-((3-((2,5,8,11-tetraoxatridecan-13-yl)oxy)pyrrolidin-1-yl)methyl)pyridin-4-yl)-3′-(trifluoromethyl)-[1,1′-biphenyl]-4-yl)oxy)-3-cyano-N-(1,2,4-thiadiazol-5-yl)benzenesulfonamide trifluoroacetate salt] | 7.9 nM | 56 µg/mL |  |
| N#Cc1cc(S(=O)(=O)Nc2ncns2)ccc1Oc1ccc(-c2cccc(C(F)(F)F)c2)cc1-c1ccnc(CN)c1 [Example 26, 4-({3-[2-(Aminomethyl)pyridin-4-yl]-3′-(trifluoromethyl)biphenyl-4-yl}oxy)-3-cyano-N-1,2,4-thiadiazol-5-ylbenzenesulfonamide bis-formate salt] | 0.5 nM | 3 µg/mL |  |
| COCCOCCOCCOCCOCCOCCOCCOCCOCCOCCOCCOCCC(=O)N1CCC(CCNCc2cc(-c3cc(-c4cccc(C(F)(F)F)c4)ccc3Oc3cc(F)c(S(=O)(=O)Nc4cscn4)cc3Cl)ccn2)CC1 [Example 30, 5-chloro-2-fluoro-4-{[3-{2-[({2-[1-(38-oxo-2,5,8,11,14,17,20,23,26,29,32,35-dodecaoxaoctatriacontan-38-yl)piperidin-4-yl]ethyl}amino)methyl]pyridin-4-yl}-3′-(trifluoromethyl)biphenyl-4-yl]oxy}-N-(1,3-thiazol-4-yl)benzenesulfonamide hydrochloride salt] | 23.9 nM |  |  |
| COCCOCCOCCOCCOCCOCCOCCOCCOCCOCCOCCOCCC(=O)N1CCC(CCNCc2cccc(-c3cc(-c4ccccc4)ccc3Oc3ccc(S(=O)(=O)Nc4ncns4)cc3C#N)c2)CC1 [Example 31, 3-cyano-4-({3″-[({2-[1-(38-oxo-2,5,8,11,14,17,20,23,26,29,32,35-dodecaoxaoctatriacontan-38-yl)piperidin-4-yl]ethyl}amino)methyl]-1,1′:3′,1″-terphenyl-4′-yl}oxy)-N-(1,2,4-thiadiazol-5-yl)benzenesulfonamide] | 9.8 nM |  |  |
| COCCOCCOCCOCCOCCOCCOCCOCCOCCOCCOCCOCCC(=O)N1CCN(c2cc(-c3cc(-c4ccc(C(F)(F)F)cc4)ccc3Oc3cc(F)c(S(=O)(=O)Nc4nncs4)cc3Cl)ccn2)CC1 [Example 32, 5-chloro-2-fluoro-4-{[3-{2-[4-(38-oxo-2,5,8,11,14,17,20,23,26,29,32,35-dodecaoxaoctatriacontan-38-yl)piperazin-1-yl]pyridin-4-yl}-4′-(trifluoromethyl)biphenyl-4-yl]oxy}-N-(1,3,4-thiadiazol-2-yl)benzenesulfonamide] | 16 nM |  |  |
| COCCOCCOCCOCCOCCOCCOCCOCCOCCOCCOCCOCCC(=O)N1CCC(CCNCc2cc(-c3cc(-c4cccc(C(F)(F)F)c4)ccc3Oc3cc(F)c(S(=O)(=O)Nc4nncs4)cc3Cl)ccn2)CC1 [Example 33, 5-chloro-2-fluoro-4-{[3-{2-[({2-[1-(38-oxo-2,5,8,11,14,17,20,23,26,29,32,35-dodecaoxaoctatriacontan-38-yl)piperidin-4-yl]ethyl}amino)methyl]pyridin-4-yl}-3′-(trifluoromethyl)biphenyl-4-yl]oxy}-N-(1,3,4-thiadiazol-2-yl)benzenesulfonamide formate salt] | 1.7 nM |  |  |
